Data reported in US6737407B1, “Treatment of obesity” (Metabolic Pharmaceuticals, Ltd., priority 1997, dated 2004).
Bridges are numbered along the chain shown (N, C = ends). Where no end group is shown, it is not given here.

Experiments:
[1] = test system: adipose tissues from male Zucker fatty (fa/fa) rats; assay: In vitro glycerol release during lipolysis in isolated adipose tissue; type: cell-based, rat
Procedure: (§1) Adipose tissues were removed from animals and sliced into segments of approximately 200 mg each. Then the tissues were pre-incubated in 25 ml vials containing 2 ml of Krebs-Ringerbicarbonate (KRB) buffer, 4% defatted BSA and 5.5 mM glucose under an atmosphere of carbogen (95%O2/ 5%CO2) at 37° C. for 1 hour. Tissues were then transferred to another vials with fresh medium and the incubation was initiated by adding hGH 177-191 peptide or analogues into the vials. The mixtures were then incubated at 37° C. for 90 minutes. After incubation, the tissues wee removed and aliquots (200 μl) of samples withdrawn from the medium were assayed for the contents of glycerol or free fatty acid (FFA) either by the enzyme assay (glycerol kinase) or calorimetric (copper-dye) spectrometry. The NADH or color produced was then monitored by the absorption at 340 nm and 610 nm, respectively.

C57BL/6J (ob/ob) mice = assay: Chronic treatment of C57BL/6J (ob/ob) mice with peptide analogues; type: in vivo, mouse
Procedure: Animals were given a daily intraperitoneal injection of either saline (as control) or peptide analogue (500 μg/kg body weight). Each point represents the mean±SEM of 6 animals.
The treatment for the two groups of animals was as described in FIG. 11A. Each point represents the mean±SEM of 6 animals.
The animals of the same age and same sex were randomly divided into two groups, housed 6 per cage and maintained on a normal 12-hr light/dark cycle at a constant room temperature of 25° C. in the animal house of the Department of Biochemistry and—Molecular Biology, Monash University, Clayton, Australia. Animals were fed ad libitum on pre-determined quantity of animal pellets (Clark King, Melboume, Australia) and allowed free access to water at all times. The animals were given a daily intraperitoneal (i.p) injection of 0.1 ml of either the synthetic peptide (200-500 μg/kg body weight) or equivalent volume of physiological saline (0.9% sodium chloride) for appropriate number of days. The i.p. injection was administered with a 30G×½″ (0.31×13 mm) needle on a 1-ml disposable tuberculin syringes, and the site of injection was the lower left quadrant of the abdomen of the animals. To study the effects of controlled-delivery of hGH 177-191 and analogues, slow-release peptide-pellets in a diameter of 3 mm were implanted intradermally in the abdominal region of Zucker rats under anaesthesia. The body weight and food intake were monitored for the periods of time as indicated.
Cumulative weight gain and food consumption were determined at 3-day intervals by the measurements of body weight and uneaten food remaining in the cages. The animals were placed in a covered chamber to minimise movement during the weighing procedure. The food consumption data were obtained by subtracting the amount of uneaten food remaining in the cages from the original provision.
The animals were anaesthetised with sodium pentobarbitone (80 mg/kg body weight) 12 hr after the last dose of hGH 177-191. Blood samples were collected from the tail vein of anaesthetised animals 45 mins after the administration of anaesthetic. After being centrifuged at 2000×g for 5 minutes, plasma was removed from the samples and used for metabolite assays. Triglyceride and total cholesterol in plasma were measured by enzyme-spectrophotometric methods. The reagents are based on either a modified glycerol phosphate oxidase (GPO)-Trinder's type colour reaction^24 or a cholesterol oxidase-4-aminoantipyrine method^25. All assays were performed with the CentrifiChem System 400 (Union Carbide) containing an automated pipetter, a centrifugal analyser and a recording spectrophotometer. Seronorm Lipid (Nycomed Pharma Co., Oslo, Norway) was used as the calibrator.

[2] = test system: Human Abdominal adipose Tissue; assay: Antilipogenic activity in human abdominal adipose tissue; type: cell-based; conditions: 0.1 μM peptide; BSA + insulin
Procedure: The rate of the incorporation of exogenous [C^14]-glucose into total lipid in adipose tissue was measured as the index of anti-lipogenic activity of hGH 177-191.
Adipose tissues were sliced into segments of approximately 200 mg each and then placed in Krebs-Ringer bicarbonate (KRB) buffer (pH 7.4) containing 2% defatted BSA, and glucose (0.1 mg/ml) and gassed with 95% O2-5% CO2 at 37° C. After 1 hr preincubation, the tissues were transferred to another 2 ml of fresh media containing [C^14]-glucose (final specific activity 0.05 μCi/μmol), […] of insulin (0.1 mU/ml) for a further 90 min incubation (conditions as above). Then the tissues were removed, washed thoroughly with KRB buffer and lipid was extracted with 5 ml of chlorofom/methanol (2:1, v/v) The extraction solution was washed with 2 ml of MeOH-H2O solution containing 0.1% MgCl2. A 2.5 ml aliquot of the washed extraction solution was taken and transferred to scintillation vials. The [C^14] radioactivity was measured with a liquid scintillation counter. The rates of total lipid synthesis were expressed as μmol [C^14]-glucose incorporated into lipid/g tissue/hr.
(§2) Tables 6 and 7 show the in vitro antilipogenic and lipolytic activity of hGH 177-191 and two representative analogues (Ref Nos. 9604 and 9605) on human adipose tissue.

Porcine adipose Tissue = assay: Lipolytic activity in porcine adipose tissue; type: cell-based, pig; conditions: 0.5 μM peptide
Procedure: as §1
Since corresponding sequences of non-human mammals are effectively peptide variants of the human sequence, it is also therefore expected that those corresponding sequences will be effective in other mammals including humans.

[3] = test system: Human Subcutaneous adipose Tissue; assay: Lipolytic activity in human subcutaneous adipose tissue; type: cell-based; conditions: 0.5 μM peptide
Procedure: as §1, §2

[4] = Post-treatment (Day 20-38), saline
[5] = Treatment (Day 0-18), i.p. 500 μg/kg daily

| Substance | Glycerol release ([1]; peptide concentration 0.1 μM) [μmol/g tissue/hr] | Glycerol release ([1]; peptide concentration 1.0 μM) [μmol/g tissue/hr] | average daily food consumption / appetite versus control (in words) (C57BL/6J (ob/ob) mice; 26-week-old ob/ob mice, FIG. 11B) | Ave. food consumption (C57BL/6J (ob/ob) mice; [4]) [g/mouse/day] | Blood glucose (C57BL/6J (ob/ob) mice; [4]) [mM] | Body weight gain (C57BL/6J (ob/ob) mice; [4]) [g] | Final body weight (C57BL/6J (ob/ob) mice; [4]) [g] | Triglyceride (C57BL/6J (ob/ob) mice; [4]) [mM] | Ave. food consumption (C57BL/6J (ob/ob) mice; [5]) [g/mouse/day] | Blood glucose (C57BL/6J (ob/ob) mice; [5]) [mM] | Body weight gain (C57BL/6J (ob/ob) mice; [5]) [g] | Final body weight (C57BL/6J (ob/ob) mice; [5]) [g] | Triglyceride (C57BL/6J (ob/ob) mice; [5]) [mM] | Initial body weight (C57BL/6J (ob/ob) mice; female ob/ob mice 26 weeks, Treatment (Day 0-18), i.p. 500 μg/kg daily) [g] | Initial body weight (C57BL/6J (ob/ob) mice; female ob/ob mice, Post-treatment (Day 20-38), saline) [g] | anti-obesity action on body weight gain (in words) (C57BL/6J (ob/ob) mice; obese mice, FIG. 11A, i.p. 500 μg/kg daily, 18 days) | 14C incorporation [2] [Av DPM/mg tissue/hour] | Glycerol released (Porcine adipose Tissue) [nmol/mg tissue/hour] | cumulative weight gain (in words) (C57BL/6J (ob/ob) mice; 16-week old ob/ob mice, chronic treatment, FIG. 12) | Glycerol released [3] [nmol/mg tissue/hour] |
| --- | --- | --- | --- | --- | --- | --- | --- | --- | --- | --- | --- | --- | --- | --- | --- | --- | --- | --- | --- | --- |
| 9403 (LRKVQCRSVEGSCGF; disulfide 6-13; listed as Homo sapiens) [compound 9403] | 1.80 ± 0.03 | 1.88 ± 0.13 | No significance | 5.03 ± 0.13 | 6.0 ± 1.0 | 2.00 ± 0.24 | 56.70 ± 4.45 | 0.54 ± 0.15 | 4.82 ± 0.22 | 6.2 ± 0.8 | -0.32 ± 0.23 | 54.42 ± 4.66 | 0.49 ± 0.10 | 54.74 ± 4.96 | 54.70 ± 4.15 | anti-obesity actions | – | – | – | – |
| 9604 (YLRIVQCRSVEGSCGF; disulfide 7-14; listed as Homo sapiens) [compound 9604] | – | – | – | – | – | – | – | – | – | – | – | – | – | – | – | – | 28 ± 3 | 1600 ± 20 | exceptional efficacy | – |
| 9605 (KLRIVQCRSVEGSCGF; disulfide 7-14; listed as Homo sapiens) [compound 9605] | – | – | – | – | – | – | – | – | – | – | – | – | – | – | – | – | 36 ± 2 | 1350 ± 80 | – | 1100 ± 80 |
